The subject of the first test is obese ZSF1 rats.
Assay: not given
Particulars: diet containing 1.36 g BT2/kg, after 4 additional weeks (8 weeks) of treatment; mean±SD.
`O=C(O)c1sc2cc(Cl)ccc2c1Cl` [BT2] gave a kidney weights of 2.09 ± 0.1 g.

Staying with this test, now noted: diet containing 1.36 g BT2/kg, after 4 weeks of treatment; BCA assay; mean±SD.
As for `O=C(O)c1sc2cc(Cl)ccc2c1Cl` [BT2], the “urine protein normalized to creatinine” value came to 55.4±7.2 mg protein/mg creatinine.

The test is the same for the next values; noted with them: diet containing 1.36 g BT2/kg, after 4 weeks of treatment; mean±SD.
Take `O=C(O)c1sc2cc(Cl)ccc2c1Cl` [BT2]: the “urine produced in 5 hour urine collection” value was 4.4 ± 2.7 mL.

The same test, now with this note: histology graded on a scale of 0-4, after 8 weeks of BT2 diet; mean±SD.
Turning to `O=C(O)c1sc2cc(Cl)ccc2c1Cl` [BT2], the diabetic nephropathy score was determined as 2.9±0.8.

A further test has as its system phospho (S293) BCKDHA in human skeletal myocytes. The experiment in a line: Phospho BCKDHA Alpha Surefire Cell Assay. Particulars: Homo sapiens, 1 h, 60 minutes with compound, geometric mean. The test is classed as cell-based.
With `O=C(O)c1sc2cc(F)ccc2c1-c1cc(Cl)c(F)cc1F` [Example 108, 3-(5-chloro-2,4-difluorophenyl)-6-fluoro-1-benzothiophene-2-carboxylic acid], the IC50 was found to be 620 nM.

In the case of `O=C(O)c1sc2cc(F)ccc2c1-c1cc(F)c(F)c(F)c1F` [Example 109, 6-fluoro-3-(2,3,4,5-tetrafluorophenyl)-1-benzothiophene-2-carboxylic acid], the IC50 was determined as 600 nM.

For `CCc1ncc(F)c(-c2c(C(=O)O)sc3cc(F)ccc23)c1F` [Example 110, 3-(2-ethyl-3,5-difluoropyridin-4-yl)-6-fluoro-1-benzothiophene-2-carboxylic acid], the IC50 was determined as 550 nM.

Turning to `O=C(O)c1sc2cc(F)ccc2c1-c1cc(F)cc(F)c1Cl` [Example 111, ammonium 3-(2-chloro-3,5-difluorophenyl)-6-fluoro-1-benzothiophene-2-carboxylate], the IC50 was over 60000 nM.

For the molecule `CCc1nccc(-c2c(C(=O)O)sc3cc(F)ccc23)c1F` [Example 112, 3-(2-ethyl-3-fluoropyridin-4-yl)-6-fluoro-1-benzothiophene-2-carboxylic acid], the IC50 was 2300 nM.

With `COc1cc(-c2c(C(=O)O)sc3cc(F)ccc23)c(F)c(F)c1Cl` [Example 114, 3-(4-chloro-2,3-difluoro-5-methoxyphenyl)-6-fluoro-1-benzothiophene-2-carboxylic acid], the IC50 was found to be 1800 nM.

Take `Cc1c(F)ccc(-c2c(C(=O)O)sc3cc(F)ccc23)c1F` [Example 117, 3-(2,4-difluoro-3-methylphenyl)-6-fluoro-1-benzothiophene-2-carboxylic acid]: the IC50 stood at 120 nM.

In the case of `COc1ccc(F)c(-c2c(C(=O)O)sc3cc(Cl)ccc23)c1F` [Example 129, 6-chloro-3-(2,6-difluoro-3-methoxyphenyl)-1-benzothiophene-2-carboxylic acid], the IC50 was 1800 nM.

For `O=C(O)c1sc2cc(Cl)ccc2c1-c1cc(Cl)c(F)cc1F` [Example 132, ammonium 6-chloro-3-(5-chloro-2,4-difluorophenyl)-1-benzothiophene-2-carboxylate], the IC50 came to 470 nM.

Turning to `O=C(O)c1sc2cc(Cl)ccc2c1-c1cc(F)c(F)cc1F` [Example 133, 6-chloro-3-(2,4,5-trifluorophenyl)-1-benzothiophene-2-carboxylic acid], the IC50 worked out at 730 nM.

`CCc1c(F)c(F)cc(-c2c(C(=O)O)sc3cc(Cl)ccc23)c1F` [Example 134, 6-chloro-3-(3-ethyl-2,4,5-trifluorophenyl)-1-benzothiophene-2-carboxylic acid]: the IC50 was determined as 80 nM.

Take `Cc1c(F)c(-c2c(C(=O)O)sc3cc(Cl)ccc23)cc(F)c1Cl` [Example 136, ammonium 6-chloro-3-(4-chloro-2,5-difluoro-3-methylphenyl)-1-benzothiophene-2-carboxylate]: the IC50 was 120 nM.

For `Cc1cc(-c2c(C(=O)O)sc3cc(Cl)ccc23)c(F)cc1F` [Example 137, 6-chloro-3-(2,4-difluoro-5-methylphenyl)-1-benzothiophene-2-carboxylic acid], the IC50 is 540 nM.

In the case of `COc1c(Cl)ccc(-c2c(C(=O)O)sc3cc(Cl)ccc23)c1F` [Example 138, 6-chloro-3-(4-chloro-2-fluoro-3-methoxyphenyl)-1-benzothiophene-2-carboxylic acid], the IC50 is 160 nM.

Regarding `O=C(O)c1sc2cc(F)ccc2c1-c1c(F)c(F)cc(F)c1F` [Example 140, 6-fluoro-3-(2,3,5,6-tetrafluorophenyl)-1-benzothiophene-2-carboxylic acid], the IC50 worked out at 3800 nM.

As for `Cc1c(F)ccc(-c2c(C(=O)O)sc3cc(Cl)ccc23)c1F` [Example 141, 6-chloro-3-(2,4-difluoro-3-methylphenyl)-1-benzothiophene-2-carboxylic acid], the IC50 is 230 nM.

Turning to `CCc1c(F)ccc(-c2c(C(=O)O)sc3cc(Cl)ccc23)c1F` [Example 143, 6-chloro-3-(3-ethyl-2,4-difluorophenyl)-1-benzothiophene-2-carboxylic acid], the IC50 was 200 nM.

`Cc1c(Cl)ccc(-c2c(C(=O)O)sc3cc(Cl)ccc23)c1F` [Example 146, 6-chloro-3-(4-chloro-2-fluoro-3-methylphenyl)-1-benzothiophene-2-carboxylic acid]: the IC50 is 110 nM.

As for `O=C(O)c1sc2cc(F)ccc2c1-c1ccc(F)c(C2CC2)c1F` [Example 147, 3-(3-cyclopropyl-2,4-difluorophenyl)-6-fluoro-1-benzothiophene-2-carboxylic acid], the IC50 is 190 nM.

Take `O=C(O)c1sc2cc(F)ccc2c1-c1c(F)cc(F)cc1Cl` [Example 148, 3-(2-chloro-4,6-difluorophenyl)-6-fluoro-1-benzothiophene-2-carboxylic acid]: the IC50 worked out at 4000 nM.

With `O=C(O)c1sc2cc(Cl)ccc2c1-c1cc(F)c(F)c(F)c1F` [Example 149, ammonium 6-chloro-3-(2,3,4,5-tetrafluorophenyl)-1-benzothiophene-2-carboxylate], the IC50 was found to be 950 nM.

Take `COc1ccc(Cl)c(-c2c(C(=O)O)sc3cc(F)ccc23)c1F` [Example 150, 3-(6-chloro-2-fluoro-3-methoxyphenyl)-6-fluoro-1-benzothiophene-2-carboxylic acid]: the IC50 is 1100 nM.

On to `COc1c(F)cc(F)c(-c2c(C(=O)O)sc3cc(F)ccc23)c1Cl` [Example 154, 3-(2-chloro-4,6-difluoro-3-methoxyphenyl)-6-fluoro-1-benzothiophene-2-carboxylic acid], for which the half-maximal inhibitory concentration (IC50) came out at 4200 nM.

Consider `COc1c(F)c(F)cc(-c2c(C(=O)O)sc3ccccc23)c1F` [Example 157, 3-(2,4,5-trifluoro-3-methoxyphenyl)-1-benzothiophene-2-carboxylic acid], for which the IC50 is 230 nM.

The IC50 is the point on the concentration scale where inhibition reaches its midpoint.

The values above are taken from patent US12466803B2 (priority 2021, dated 2025).
